Results published in US20060058286A1, “Methods of treating HIV infection” (priority 2004, published 2006).

Legend:
HIV-1 NL4-3 [1] = experiment: microbe, parasite or virus in culture
Description: (§1) Virus and cell lines. The T-cell line, MT-2 was obtained through the AIDS Research and Reference Reagent Program, NIAID and was contributed by Dr. D. Richman. The cell line was cultured in RPMI 1640 medium supplemented with 10% fetal bovine serum, 2 mM L-glutamine and sub-cultured twice a week. The NL4-3 strain of HIV-1 was obtained from the AIDS Research and Reference Reagent Program. Both virus stocks were amplified and titered in MT-2 cells using a virus infectivity assay.
(§2) Drug Susceptibility and Cytotoxicity Assays. For drug susceptibility assays, MT-2 cells were infected with HIV-1 NL4-3 at an MOI of 0.001, and seeded into 96-well microtiter plates (2.5×10^5 cells/ml) containing serial dilutions of test compounds. […] Each drug ratio consisted of an array of 3-fold serial dilutions, and was performed in quadruplicate. The plates were incubated at 37° C./5% CO2. The MT-2 cells infected with HIV-1 NL4-3 were incubated for 5 days. On day-five post-infection, 20 μl from each well was harvested and quantitated by a reverse transcriptase (RT) assay or an MTS assay. Cytotoxicity assays were performed using uninfected cells, exposed to the same drug combinations, and incubated for five days. Cell viability was determined by an XTT assay. The CC50 values were calculated by using the exponential form of the median effect equation as mentioned below for calculation of EC50.
(§3) In this equation, Fa stands for “fraction affected,” and represents the fraction of the viral load that has been inactivated.
In carrying out the combination experiments below, the EC50 for Compound 1 and each comparator compound was determined during the course of each study, and used in the subsequent data analysis.

HIV-1 NL4-3 [2] = experiment: Two-drug combination study with Compound 1 (combination indices); format: cell-based; details: for Combination Indices at 50% HIV Inhibition (Confidence Interval) / Combination Indices at 75% HIV Inhibition (Confidence Interval) / Combination Indices at 90% HIV Inhibition (Confidence Interval): 95% CI in parentheses; for Overall Result: overall antiviral effect of the two-drug combination with Compound 1, all ratios and effective levels
Description: as §1, §2
Analysis of Drug Combination Effects. For determination of CI values, drugs were diluted in a fixed ratio and multiple ratios were analyzed. The drug serial dilutions spanned a range of concentrations near the EC50 value of each compound, so that equivalent antiviral activities could be compared. Concentration-response curves were estimated for each individual drug and every combination using the median-effect equation. The equation was fit using a nonlinear regression routine (Proc Nlin) in PC SAS version 8.01 (SAS Institute Inc., SAS Version 8.01, Cary, N.C.: SAS Institute Inc., 1990).
as §3
To assess antiviral effects of different drug combination treatments, combination indices (CIs) were calculated according to Chou and Rideout. The combination index was computed as CI=[D]1/[Dm]1+[D]2/[Dm]2
In this equation [Dm]1 and [Dm]2 are the concentrations of drugs that would individually produce a specific level of effect, while [D]1 and [D]2 are the concentrations of drugs in combination that would produce the same level of effect.
Theoretically, additivity is implied if the CI is equal to one, synergy if the CI is less than one, and antagonism if the CI is greater than one. […] At best, we can construct a range that contains the likely values for the CI, given the noise in the data. In this report, these ranges are reported in parentheses next to each point estimate of the CI. […] If the range fell entirely above 1.0, we would infer antagonistic behavior. If the range were to include 1.0, we would infer additivity.

[3] = combination with Compound 1, EC50 ratio 1:1 (Compound 1:comparator)
[4] = combination with Compound 1, EC50 ratio 1:2.5 (Compound 1:comparator)
[5] = combination with Compound 1, EC50 ratio 2.5:1 (Compound 1:comparator)
[6] = Human immunodeficiency virus 1, NL43, MT2, 120 h

| Compound | EC50 (HIV-1 NL4-3 [1]; NL4-3) | Combination Indices at 50% HIV Inhibition (Confidence Interval) (HIV-1 NL4-3 [2]; [3]) | Combination Indices at 75% HIV Inhibition (Confidence Interval) (HIV-1 NL4-3 [2]; [3]) | Combination Indices at 90% HIV Inhibition (Confidence Interval) (HIV-1 NL4-3 [2]; [3]) | Combination Indices at 50% HIV Inhibition (Confidence Interval) (HIV-1 NL4-3 [2]; [4]) | Combination Indices at 75% HIV Inhibition (Confidence Interval) (HIV-1 NL4-3 [2]; [4]) | Combination Indices at 90% HIV Inhibition (Confidence Interval) (HIV-1 NL4-3 [2]; [4]) | Combination Indices at 50% HIV Inhibition (Confidence Interval) (HIV-1 NL4-3 [2]; [5]) | Combination Indices at 75% HIV Inhibition (Confidence Interval) (HIV-1 NL4-3 [2]; [5]) | Combination Indices at 90% HIV Inhibition (Confidence Interval) (HIV-1 NL4-3 [2]; [5]) | Overall Result (HIV-1 NL4-3 [2]) | Overall Result (HIV-1 NL4-3 [2]; listed as T-20) | EC50 (HIV-1 NL4-3 [1]; [6]) | Overall Result (HIV-1 NL4-3 [2]; listed as zalcitabine) | Overall Result (HIV-1 NL4-3 [2]; listed as nevirapine) | EC50 (HIV-1 NL4-3 [1]; MT-2 cells infected with HIV-1 NL4-3, MOI 0.001, 5 days, single drug) |
| --- | --- | --- | --- | --- | --- | --- | --- | --- | --- | --- | --- | --- | --- | --- | --- | --- |
| enfuvirtide | 7 nM | 0.74 (0.58, 0.89) | 0.95 (0.67, 1.24) | 1.25 (0.66, 1.83) | 0.72 (0.55, 0.89) | 0.69 (0.46, 0.91) | 0.68 (0.33, 1.02) | 1.04 (0.82, 1.27) | 0.95 (0.66, 1.24) | 0.87 (0.45, 1.29) | Additive- | synergistic to additive |  |  |  |  |
| Nc1ccn([C@@H]2CS[C@H](CO)O2)c(=O)n1 [Lamivudine, lamivudine] |  | 0.69 (0.58, 0.81) | 0.49 (0.38, 0.61) | 0.37 (0.25, 0.50) | 0.58 (0.52, 0.65) | 0.60 (0.51, 0.69) | 0.64 (0.49, 0.80) | 0.93 (0.65, 1.20) | 0.78 (0.46, 1.10) | 0.70 (0.24, 1.16) |  |  | 190 nM |  |  |  |
| Nc1ccn([C@H]2CC[C@@H](CO)O2)c(=O)n1 [Zalcitabine, zalcitabine] |  | 0.79 (0.64, 0.94) | 0.75 (0.55, 0.96) | 0.72 (0.42, 1.02) | 0.83 (0.70, 0.95) | 0.70 (0.56, 0.85) | 0.60 (0.41, 0.80) | 0.85 (0.75, 0.95) | 0.72 (0.61, 0.84) | 0.61 (0.46, 0.77) | Synergistic |  | 120 nM | synergistic |  |  |
| Cc1ccnc2c1NC(=O)c1cccnc1N2C1CC1 [Nevirapine, nevirapine] |  | 0.51 (0.39, 0.63) | 0.30 (0.20, 0.40) | 0.18 (0.08, 0.27) | 0.63 (0.42, 0.83) | 0.40 (0.22, 0.59) | 0.26 (0.07, 0.46) | 0.52 (0.39, 0.64) | 0.32 (0.22, 0.43) | 0.21 (0.10, 0.31) | Synergistic |  | 85 nM |  | strong synergistic effects |  |
| C[C@H](Cn1cnc2c(N)ncnc21)OCP(=O)(O)O [Tenofovir, tenofovir] |  | 1.30 (1.00, 1.61) | 1.02 (0.69, 1.35) | 0.80 (0.39, 1.21) | 0.93 (0.63, 1.23) | 0.99 (0.54, 1.43) | 1.06 (0.31, 1.80) | 1.03 (0.65, 1.40) | 0.84 (0.42, 1.27) | 0.70 (0.14, 1.25) | Additive |  |  |  |  | 3 nM |
